Data from patent US20240100023A1, “Compositions and Methods For Treating Spinal Cord Injuries” (priority 2020, published 2024).

Columns and labels:
[1] = system: BDNF and NGF mRNAs; test: BDNF and NGF mRNA prevalence in brain regions (anti-sense cRNA assays); format: in vivo; conditions: for NGF message levels in the dentate gyrus granule cell layers: ampakine-stimulated versus vehicle-treated control; for BDNF and NGF mRNAs in layer II of the piriform cortex: systemic, CX516 30 mg/kg/day, CX691 3 mg/kg/day
Text: Ampakines enhanced NGF mRNA somewhat more than that of BDNF.

[2] = system: fragile X syndrome (FXS) patients; conditions: in vivo; cited from earlier work
[3] = system: hippocampal slices

## O=C(c1ccc2nccnc2c1)N1CCCCC1 [CX516]
[1]
  NGF message levels in the dentate gyrus granule cell layers: significantly enhanced
  BDNF and NGF mRNAs in layer II of the piriform cortex: significantly up-regulated
[2]
  Memory, language use, attention, executive and overall functioning in FXS: did not exhibit improved memory

## O=C1c2cc3c(cc2OC2CCCN12)OCCO3 (stereo not drawn) [CX614, reference compound]
[3]
  Concentration at which seizure activity is seen in hippocampal slices: 16 µM

## O=C(c1ccc2nonc2c1)N1CCCCC1 [CX691]
[1]
  NGF message levels in the dentate gyrus granule cell layers: significantly enhanced
  BDNF and NGF mRNAs in layer II of the piriform cortex: significantly up-regulated
